In patent US20090215760A1, “SYNERGISTIC INSECTICIDE MIXTURES” (priority 2004, published 2009):

Tests used:
Type in all cases: in vivo
[1] = system: Plutella xylostella, normal sensitive strain; assay: Plutella xylostella test (normal sensitive strain), cabbage leaf dip; settings: single active compound
Text: (§1) The action expected for a given combination of two active components can be calculated as follows (cf. Colby, S. R., “Calculating Synergistic and Antagonistic Responses of Herbicide Combinations”, Weeds 15, pages 20-22, 1967):
(§2) if • X stands for the death rate expressed as % of the untreated controls on application of active component A at an applied amount of m ppm • Y for the death rate expressed as % of the untreated controls on application of active component B at an applied amount of n ppm • E for the death rate expressed as % of the untreated controls on application of active components A and B at applied amount of m and n ppm • then
(§3) If the actual insecticidal death rate is greater than calculated, the combination is superadditive in its death rate, i.e. there is a synergistic effect. In this case the death rate actually observed must be greater than the value for the expected death rate (E) calculated from the above equation.
Plutella xylostella Test (Normal Sensitive Strain)
(§4) To prepare a suitable formulation of the active material 1 part by weight of the active material is mixed with the given amounts of solvent and emulsifier and the concentrate is diluted to the desired concentration with water containing the emulsifier.
Cabbage leaves (Brassica oleracea) are treated by dipping into the active mixture formulation at the desired concentration and infected with the caterpillar of the diamondback (cabbage) moth (Plutella xylostella, normal sensitive strain) while the leaves are still moist.
(§5) After the desired time the death rate is calculated as %, where 100% means that all caterpillars were killed, 0% that no caterpillars were killed. The death rates are calculated by the Colby equation.

Myzus persicae = Myzus persicae test, cabbage leaf dip; settings: single active compound
Text: as §1, §2, §3, §4
Cabbage leaves (Brassica oleracea) which are highly infected by the green peach aphid (Myzus persicae) are treated by dipping into the active mixture formulation of the desired concentration.
After the desired time the death rate is calculated as %, where 100% means that all aphids were killed, 0% that no aphids were killed. The death rates were calculated by the Colby equation.

Spodoptera frugiperda = Spodoptera frugiperda test, cabbage leaf dip; settings: 4 ppm, single active compound
Text: as §1, §2, §3
Spodoptera frugiperda Test […]
as §5

[2] = 4 ppm, 6 d (Table B, clothianidin series)

SMILES	Death rate in % after 6 d ([1]; 4 ppm) [%]	Death rate in % after 6 d (Myzus persicae; [2]) [%]	Death rate in % after 6 d (Spodoptera frugiperda) [%]	also measured
CN/C(=N\[N+](=O)[O-])NCc1cnc(Cl)s1 [Clothianidin]	10	0	–	–
CC[S+]([O-])c1c(C#N)nn(-c2c(Cl)cc(C(F)(F)F)cc2Cl)c1N (stereo not drawn) [Ethiprole, ethiprole]	0	0	0	Death rate in % after 4 d ([1]; 20 ppm): 35%; Death rate in % after 6 d (Myzus persicae; 0.8 ppm, 6 d (Table B, imidacloprid series)): 0%; Death rate in % after 6 d (Myzus persicae; 4 ppm, 6 d (Table B, thiacloprid series)): 10%
O=[N+]([O-])/N=C1\NCCN1Cc1ccc(Cl)nc1 [Imidacloprid]	–	–	15	Death rate in % after 6 d (Myzus persicae; 0.16 ppm, 6 d (Table B, imidacloprid series)): 0%
N#C/N=C1\SCCN1Cc1ccc(Cl)nc1 [Thiacloprid]	–	–	–	Death rate in % after 4 d ([1]; 4 ppm): 0%; Death rate in % after 6 d (Myzus persicae; 0.8 ppm, 6 d (Table B, thiacloprid series)): 15%
